Data published in EP2140864A2 (H. Lundbeck A/S, priority 2001, dated 2002).
Where two headings read alike, the source gives them in different places.

Assays:
human α2A adrenoceptor = molecular target: T1, human α2A adrenoceptor (Homo sapiens, UniProt P08913); test: Radioligand binding, α2A adrenergic receptor
T1 construct: expressed in transfected cells
T1 sequence (P08913 1-465): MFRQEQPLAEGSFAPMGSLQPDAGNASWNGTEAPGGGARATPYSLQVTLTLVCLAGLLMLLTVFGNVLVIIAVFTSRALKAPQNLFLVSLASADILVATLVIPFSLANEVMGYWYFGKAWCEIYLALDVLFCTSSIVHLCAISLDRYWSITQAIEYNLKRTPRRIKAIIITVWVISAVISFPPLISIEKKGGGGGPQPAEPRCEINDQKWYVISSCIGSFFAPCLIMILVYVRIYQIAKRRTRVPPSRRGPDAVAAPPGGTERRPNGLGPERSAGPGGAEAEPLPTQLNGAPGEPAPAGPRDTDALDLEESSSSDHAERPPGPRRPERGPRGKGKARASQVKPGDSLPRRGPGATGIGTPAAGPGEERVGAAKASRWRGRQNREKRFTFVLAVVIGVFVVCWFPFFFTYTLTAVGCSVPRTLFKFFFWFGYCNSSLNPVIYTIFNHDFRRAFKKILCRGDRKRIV
Description: (§1) Other receptors: Cell membranes expressing human dopamine D1, D2, D4 and rat D3 receptors were purchased through BioSignal, Inc. (Montreal, Canada). Binding assays using the histamine H1 receptor; dopamine receptors; and α1A, α1E, and α2 adrenergic receptors may be carried out according to the procedures described in U.S. Patent No. 5,780,485, the disclosure of which is hereby incorporated by reference in its entirety into this application. Binding assays using the dopamine D5 receptor may be carried out according to the procedures described in U.S. Patent No. 5,882,855, the disclosure of which is hereby incorporated by reference in its entirety into this application. Binding assays for the human α1D adrenergic receptor may be carried out according to the procedures described in U.S. Patent No. 6,156,518, the disclosure of which is hereby incorporated by reference in its entirety into this application.
(§2) Binding data were analyzed using nonlinear regression and statistical techniques available in the GraphPAD Prism package (San Diego, CA). Enzymatic assay data were derived from a standard curve of reference compound data.

5HT transporter = 5HT transporter (Rattus norvegicus, UniProt P31652); test: Binding at native 5HT transporter
5HT transporter, sequence (P31652 whole entry): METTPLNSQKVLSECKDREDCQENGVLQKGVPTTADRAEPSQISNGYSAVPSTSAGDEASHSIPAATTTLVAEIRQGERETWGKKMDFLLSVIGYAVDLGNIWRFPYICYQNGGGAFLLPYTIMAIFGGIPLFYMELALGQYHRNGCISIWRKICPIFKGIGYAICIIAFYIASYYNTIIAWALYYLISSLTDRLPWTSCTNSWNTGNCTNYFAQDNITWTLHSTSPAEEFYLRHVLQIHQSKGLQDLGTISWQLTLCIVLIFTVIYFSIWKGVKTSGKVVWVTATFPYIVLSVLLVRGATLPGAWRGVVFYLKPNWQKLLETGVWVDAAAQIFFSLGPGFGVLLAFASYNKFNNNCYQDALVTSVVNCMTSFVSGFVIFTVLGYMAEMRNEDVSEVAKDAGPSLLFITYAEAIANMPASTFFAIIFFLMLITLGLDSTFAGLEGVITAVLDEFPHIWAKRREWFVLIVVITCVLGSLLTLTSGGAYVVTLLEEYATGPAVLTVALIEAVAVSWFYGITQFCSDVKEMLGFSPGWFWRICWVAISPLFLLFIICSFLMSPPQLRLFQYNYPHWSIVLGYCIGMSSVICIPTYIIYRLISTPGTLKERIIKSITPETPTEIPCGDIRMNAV
Protocol: The binding properties of the compounds of the present invention were evaluated at one or more cloned receptors or native, tissue-derived transporters, using protocols described below.
The methods to determine binding affinity at native transporters are described in the following publications: 5HT transporter and NE transporter (Owens et al., 1997), and DA transporter (Javitch et al, 1984).
as §2

human α1B adrenoceptor = molecular target: T2, human α1B adrenoceptor (Homo sapiens, UniProt P35368); test: Radioligand binding, α1B adrenergic receptor
T2 construct: expressed in transfected cells
T2 sequence (P35368 1-520): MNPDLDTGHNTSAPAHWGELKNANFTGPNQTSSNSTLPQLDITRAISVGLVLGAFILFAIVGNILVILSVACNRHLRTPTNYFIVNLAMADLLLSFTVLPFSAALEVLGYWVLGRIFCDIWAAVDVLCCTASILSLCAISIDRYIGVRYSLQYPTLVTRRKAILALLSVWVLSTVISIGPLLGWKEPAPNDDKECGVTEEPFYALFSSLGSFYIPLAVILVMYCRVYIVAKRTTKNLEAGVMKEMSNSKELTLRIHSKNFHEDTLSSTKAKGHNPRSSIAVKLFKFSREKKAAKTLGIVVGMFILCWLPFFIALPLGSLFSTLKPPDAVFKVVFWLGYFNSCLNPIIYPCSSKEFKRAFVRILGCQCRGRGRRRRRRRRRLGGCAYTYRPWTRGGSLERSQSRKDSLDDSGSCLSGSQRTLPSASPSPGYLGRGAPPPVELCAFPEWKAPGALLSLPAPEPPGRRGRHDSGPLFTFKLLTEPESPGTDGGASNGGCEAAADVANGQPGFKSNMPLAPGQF

human 5HT1E = molecular target: T3, human 5HT1E (Homo sapiens, UniProt P28566); test: Radioligand binding, 5HT1E receptor ([3H]-serotonin)
T3 construct: expressed in transfected cells
T3 sequence (P28566 whole entry): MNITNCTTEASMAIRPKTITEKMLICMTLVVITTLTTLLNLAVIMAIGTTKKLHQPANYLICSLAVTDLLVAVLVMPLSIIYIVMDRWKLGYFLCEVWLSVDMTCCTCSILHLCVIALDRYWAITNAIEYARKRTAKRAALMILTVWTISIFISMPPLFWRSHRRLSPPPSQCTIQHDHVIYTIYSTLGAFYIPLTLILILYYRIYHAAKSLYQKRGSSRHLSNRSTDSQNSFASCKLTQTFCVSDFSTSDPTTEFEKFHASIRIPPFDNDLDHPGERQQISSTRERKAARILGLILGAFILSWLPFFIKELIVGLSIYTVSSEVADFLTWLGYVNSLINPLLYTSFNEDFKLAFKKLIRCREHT
Protocol: Human 5HT1B, 5HT1D, 5HT1E, 5HT1F, and 5HT7 Receptors: The cell lysates of LM(tk-) clonal cell line stably transfected with the genes encoding each of these 5HT receptor-subtypes were prepared as described above. Cell membranes were suspended in 50mM Tris-HCl buffer (pH 7.4 at 37°C) containing 10 mM MgCl2, 0.2 mM EDTA, 10 µM pargyline, and 0.1% ascorbate. […] Nonspecific binding was determined in the presence of 10 µM serotonin. The bound radioligand was separated by filtration through GF/B filters using a cell harvester.
as §2

human α1A adrenoceptor = molecular target: T4, human α1A adrenoceptor (Homo sapiens, UniProt P35348); test: Radioligand binding, α1A adrenergic receptor
T4 construct: expressed in transfected cells
T4 sequence (P35348 1-466): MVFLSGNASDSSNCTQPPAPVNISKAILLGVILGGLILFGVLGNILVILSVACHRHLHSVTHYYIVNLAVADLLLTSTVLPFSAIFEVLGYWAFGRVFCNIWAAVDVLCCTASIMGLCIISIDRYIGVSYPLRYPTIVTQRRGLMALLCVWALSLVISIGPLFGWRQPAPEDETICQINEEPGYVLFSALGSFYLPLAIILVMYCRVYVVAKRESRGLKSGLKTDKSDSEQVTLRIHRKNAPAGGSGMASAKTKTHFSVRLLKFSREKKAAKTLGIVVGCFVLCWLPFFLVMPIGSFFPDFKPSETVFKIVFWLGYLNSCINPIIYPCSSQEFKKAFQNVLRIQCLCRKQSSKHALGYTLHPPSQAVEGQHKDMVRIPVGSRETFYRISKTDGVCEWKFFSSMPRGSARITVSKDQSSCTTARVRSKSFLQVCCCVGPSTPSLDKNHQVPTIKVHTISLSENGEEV
Description: as §1, §2

dopamine D5 receptor = molecular target: T5, dopamine D5 receptor (Homo sapiens, UniProt P21918); test: Radioligand binding, dopamine D5 receptor
T5 construct: expressed in transfected cells
T5 sequence (P21918 whole entry): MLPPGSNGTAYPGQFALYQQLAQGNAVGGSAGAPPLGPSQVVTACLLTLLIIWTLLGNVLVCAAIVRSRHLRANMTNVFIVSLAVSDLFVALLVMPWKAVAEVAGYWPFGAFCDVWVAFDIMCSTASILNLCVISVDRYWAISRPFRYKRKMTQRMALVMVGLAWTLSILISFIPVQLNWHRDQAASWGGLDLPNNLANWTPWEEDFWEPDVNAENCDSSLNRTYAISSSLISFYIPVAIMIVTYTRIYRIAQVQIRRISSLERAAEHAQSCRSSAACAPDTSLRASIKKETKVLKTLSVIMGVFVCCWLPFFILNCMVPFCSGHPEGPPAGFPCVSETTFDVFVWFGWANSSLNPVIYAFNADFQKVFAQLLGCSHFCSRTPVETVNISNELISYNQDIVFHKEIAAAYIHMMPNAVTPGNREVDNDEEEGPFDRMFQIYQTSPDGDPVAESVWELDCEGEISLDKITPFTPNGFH
Description: as §1, §2

[1] = Table 10; Ki hα2A divided by Ki hGAL3
[2] = Table 7; native transporter, head prints r (rat); read-out: r5HT Uptk Ki
[3] = Table 8; Ki r5HT Uptk divided by Ki hGAL3
[4] = Table 10; Ki hα1B divided by Ki hGAL3
[5] = Table 8; Ki h5HT1E divided by Ki hGAL3
[6] = Table 10; Ki hα1A divided by Ki hGAL3
[7] = Table 10; Ki hD5 divided by Ki hGAL3

Row | SMILES | Ki (human α2A adrenoceptor; Table 9; read-out: hα2A Ki) [µM] | selectivity ratio hα2A (human α2A adrenoceptor; [1]) | Ki (5HT transporter; [2]) [µM] | selectivity ratio r5HT Uptk (5HT transporter; [3]) | Ki (human α1B adrenoceptor; Table 9; read-out: hα1B Ki) [µM] | selectivity ratio hα1B (human α1B adrenoceptor; [4]) | Ki (human 5HT1E; Table 7; read-out: h5HT1E Ki) [µM] | selectivity ratio h5HT1E (human 5HT1E; [5]) | Ki (human α1A adrenoceptor; Table 9; read-out: hα1A Ki) [µM] | selectivity ratio hα1A (human α1A adrenoceptor; [6]) | Ki (dopamine D5 receptor; Table 9; read-out: hD5 Ki) [µM] | selectivity ratio hD5 (dopamine D5 receptor; [7]) | Ki (human α2A adrenoceptor; read-out: hα2A Ki; Table 9) [µM] | Ki (5HT transporter; read-out: r5HT Uptk Ki; Table 7; native transporter, head prints r (rat)) [µM] | Ki (human α1B adrenoceptor; read-out: hα1B Ki; Table 9) [µM] | Ki (human 5HT1E; read-out: h5HT1E Ki; Table 7) [µM] | Ki (human α1A adrenoceptor; read-out: hα1A Ki; Table 9) [µM] | Ki (dopamine D5 receptor; read-out: hD5 Ki; Table 9) [µM]
1 | O=C1C(=Nc2cccc(Cl)c2)c2ccccc2N1c1ccccc1 [Example 94, 3-[(3-CHLOROPHENYL)IMINO]-1-PHENYL-1,3-DIHYDRO-2H-INDOL-2-ONE] | 12.7 | >100 | 13 | >100 | 31.1 | >100 | 25.2 | >100 | 12.7 | >100 | 0.727 | 15 |  |  |  |  |  | 
2 | COc1cccc(Nc2cc(N3CCCCC3)nc(N(C)CCc3c[nH]c4ccccc34)n2)c1 [Example 17] | 3.52 | >30 | 0.719 | 8 | 1.17 | 13 | 33.5 | >100 | 0.996 | 11 | 0.089 | 1 |  |  |  |  |  | 
3 | Cc1ccc(Nc2cc(N3CCCCC3)nc(N(C)CCc3ccccc3)n2)cc1 [Example 22] | 0.906 | >30 | 8.48 | >100 | 1.58 | >30 | 13.2 | >100 | 1.28 | >30 | 0.063 | 2 |  |  |  |  |  | 
4 | O=C1C(=Nc2ccc(Br)cc2)c2ccccc2N1c1ccccc1 [Example 98, 3-[(4-BROMOPHENYL)IMINO]-1-PHENYL-1,3-DIHYDRO-2H-INDOL-2-ONE] | 23.2 | >100 | 36.3 | >100 | 31.7 | >100 | 16.2 | >100 | 14.5 | >100 | 1.2 | >30 |  |  |  |  |  | 
5 | COC[C@@H]1[C@@H](c2ccccc2)OCCN1c1nc(Nc2ccc(C)cc2)cc(N2CCCCC2)n1 [Example 49] |  | 22 |  | >100 |  | >30 |  | >100 |  | >30 |  | 2 | 4.73 | 40.7 | 18.9 | 23.9 | 6.65 | 0.328
6 | O=C1C(=Nc2ccc(C(F)(F)F)cc2)c2ccccc2N1c1ccccc1 [Example 95, 1-PHENYL-3-[[4-(TRIFLUOROMETHYL)PHENYL]IMINO]-1,3-DIHYDRO-2H-INDOL-2-ONE] | 30.1 | >100 | > 50 | >100 | 32.5 | >100 | 27.2 | >100 | 13.1 | >100 | 2.59 | >30 |  |  |  |  |  | 
7 | CN(C)c1cc(Nc2ccc(Cl)c(Cl)c2)nc(Nc2ccccc2)n1 [Example 60] | 10.8 | >100 | 25.3 | >100 | 40.6 | >100 | 1.18 | 14 | 13.6 | >100 | 0.538 | 6 |  |  |  |  |  | 
8 | O=C1C(=Nc2cccc(C(F)(F)F)c2)c2ccccc2N1c1ccccc1 [Example 92, 1-PHENYL-3- [[3-(TRIFLUOROMETHYL)PHENYL]IMINO]-1,3-DIHYDRO-2H-INDOL-2-ONE] |  | >100 |  | >100 |  | >100 |  | >100 |  |  |  | >100 |  |  |  |  |  | 
9 | Cc1ccc(Nc2cc(N3CCCCC3)nc(N3CCN(c4ncccc4C(F)(F)F)CC3)n2)cc1 [Example 34] | 3.68 | >100 | 37.5 | >100 | 15 | >100 | 28.3 | >100 | 3.76 | >100 | 0.111 | 5 |  |  |  |  |  | 
10 | CN(CCc1c[nH]c2ccccc12)c1nc(Nc2ccc(F)c(F)c2)cc(N2CCCCC2)n1 [Example 15] | 14.4 | >100 | 1.74 | 24 | 0.853 | 12 | 11 | >100 | 3.39 | 46 | 0.078 | 1 |  |  |  |  |  | 
11 | Cc1ccc(Nc2cc(N(C)C)nc(N(C)CCc3c[nH]c4ccccc34)n2)cc1 [Example 77] | 0.315 | 4 | 0.821 | 10 | 0.452 | 6 | 5.89 | >30 | 0.834 | 11 | 0.122 | 2 |  |  |  |  |  | 
12 | O=C1C(=Nc2ccc(Cl)cc2)c2ccccc2N1c1ccccc1 [Example 97, 3-[(4-CHLOROPHENYL)IMINO]-1-PHENYL-1,3-DIHYDRO-2H-INDOL-2-ONE] | 13.6 | >100 | 36.3 | >100 | 45.8 | >100 | 22.7 | >100 | 16.9 | >100 | 10.1 | >100 |  |  |  |  |  | 
